Data from patent publication US8921362B2, “6,7-dialkoxy quinazoline derivatives and methods of treating drug resistant and other tumors” (Natco Pharma Limited, priority 2008, dated 2014).

Experiments:
Test in all cases: KinomeScan
Assay type in all cases: binding
Details in all cases: read-out: % Ctrl @ 10000 nM
MAP4K2 = target: T1, MAP4K2 (Homo sapiens, UniProt Q12851)
T1 construct: host or cells: E. coli host derived from the BL21 strain, infected with T7 phage
Outline: (§1)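 Kinase-tagged T7 phage lysates were cleared by centrifugation and filtration, then incubated with liganded beads blocked with excess biotin and SeaBlock/1% BSA/0.05% Tween 20/1 mM DTT buffer plus test compound. Phage retained on beads was eluted and quantified by quantitative PCR.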

LTK = target: T2, LTK (Homo sapiens, UniProt P29376)
T2 construct: host or cells: E. coli host derived from the BL21 strain, infected with T7 phage
Outline: as §1

HIPK1 = target: T3, HIPK1 (Homo sapiens, UniProt Q86Z02)
T3 construct: host or cells: T7 phage in E. coli host derived from BL21
Outline: as §1

MST3 = target: T4, MST3 (Homo sapiens, UniProt Q9Y6E0)
T4 construct: host or cells: T7 phage grown in E. coli host derived from BL21
T4 sequence (Q9Y6E0 whole entry): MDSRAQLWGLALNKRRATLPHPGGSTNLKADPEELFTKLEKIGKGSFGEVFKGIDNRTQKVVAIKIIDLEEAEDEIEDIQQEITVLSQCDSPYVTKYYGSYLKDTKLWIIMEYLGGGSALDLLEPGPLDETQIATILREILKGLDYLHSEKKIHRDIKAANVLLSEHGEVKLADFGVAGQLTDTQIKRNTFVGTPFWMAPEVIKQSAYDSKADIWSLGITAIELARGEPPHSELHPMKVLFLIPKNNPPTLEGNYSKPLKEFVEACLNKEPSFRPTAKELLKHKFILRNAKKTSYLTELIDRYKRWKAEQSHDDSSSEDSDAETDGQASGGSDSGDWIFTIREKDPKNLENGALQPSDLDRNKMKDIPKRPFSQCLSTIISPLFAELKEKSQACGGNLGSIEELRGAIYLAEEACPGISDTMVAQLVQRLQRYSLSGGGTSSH
Outline: as §1

PHKG1 = target: T5, PHKG1 (Homo sapiens, UniProt Q16816)
T5 construct: host or cells: E. coli host derived from BL21, infected with T7 phage
Outline: as §1

PKMYT1 = target: T6, PKMYT1 (Homo sapiens, UniProt Q99640)
T6 construct: host or cells: T7 phage in E. coli host derived from BL21
T6 sequence (Q99640 whole entry): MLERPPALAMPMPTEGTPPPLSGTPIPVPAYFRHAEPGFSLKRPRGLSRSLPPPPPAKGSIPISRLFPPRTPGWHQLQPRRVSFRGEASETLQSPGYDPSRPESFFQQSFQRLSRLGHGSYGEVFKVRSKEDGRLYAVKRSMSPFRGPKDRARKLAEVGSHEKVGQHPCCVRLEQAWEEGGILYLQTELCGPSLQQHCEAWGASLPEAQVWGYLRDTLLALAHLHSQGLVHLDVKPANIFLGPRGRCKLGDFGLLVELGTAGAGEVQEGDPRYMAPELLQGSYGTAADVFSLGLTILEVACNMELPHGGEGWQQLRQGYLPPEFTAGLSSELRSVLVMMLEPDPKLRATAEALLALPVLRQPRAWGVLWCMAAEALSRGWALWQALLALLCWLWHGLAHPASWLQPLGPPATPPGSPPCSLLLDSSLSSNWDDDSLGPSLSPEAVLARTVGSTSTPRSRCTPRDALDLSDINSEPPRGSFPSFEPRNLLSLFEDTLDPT
Outline: as §1

ULK1 = target: T7, ULK1 (Homo sapiens, UniProt O75385)
T7 construct: host or cells: E. coli host derived from BL21, T7 phage
Outline: as §1

LATS1 = target: T8, LATS1 (Homo sapiens, UniProt O95835)
T8 construct: host or cells: T7 phage grown in E. coli host derived from BL21
T8 sequence (O95835 whole entry): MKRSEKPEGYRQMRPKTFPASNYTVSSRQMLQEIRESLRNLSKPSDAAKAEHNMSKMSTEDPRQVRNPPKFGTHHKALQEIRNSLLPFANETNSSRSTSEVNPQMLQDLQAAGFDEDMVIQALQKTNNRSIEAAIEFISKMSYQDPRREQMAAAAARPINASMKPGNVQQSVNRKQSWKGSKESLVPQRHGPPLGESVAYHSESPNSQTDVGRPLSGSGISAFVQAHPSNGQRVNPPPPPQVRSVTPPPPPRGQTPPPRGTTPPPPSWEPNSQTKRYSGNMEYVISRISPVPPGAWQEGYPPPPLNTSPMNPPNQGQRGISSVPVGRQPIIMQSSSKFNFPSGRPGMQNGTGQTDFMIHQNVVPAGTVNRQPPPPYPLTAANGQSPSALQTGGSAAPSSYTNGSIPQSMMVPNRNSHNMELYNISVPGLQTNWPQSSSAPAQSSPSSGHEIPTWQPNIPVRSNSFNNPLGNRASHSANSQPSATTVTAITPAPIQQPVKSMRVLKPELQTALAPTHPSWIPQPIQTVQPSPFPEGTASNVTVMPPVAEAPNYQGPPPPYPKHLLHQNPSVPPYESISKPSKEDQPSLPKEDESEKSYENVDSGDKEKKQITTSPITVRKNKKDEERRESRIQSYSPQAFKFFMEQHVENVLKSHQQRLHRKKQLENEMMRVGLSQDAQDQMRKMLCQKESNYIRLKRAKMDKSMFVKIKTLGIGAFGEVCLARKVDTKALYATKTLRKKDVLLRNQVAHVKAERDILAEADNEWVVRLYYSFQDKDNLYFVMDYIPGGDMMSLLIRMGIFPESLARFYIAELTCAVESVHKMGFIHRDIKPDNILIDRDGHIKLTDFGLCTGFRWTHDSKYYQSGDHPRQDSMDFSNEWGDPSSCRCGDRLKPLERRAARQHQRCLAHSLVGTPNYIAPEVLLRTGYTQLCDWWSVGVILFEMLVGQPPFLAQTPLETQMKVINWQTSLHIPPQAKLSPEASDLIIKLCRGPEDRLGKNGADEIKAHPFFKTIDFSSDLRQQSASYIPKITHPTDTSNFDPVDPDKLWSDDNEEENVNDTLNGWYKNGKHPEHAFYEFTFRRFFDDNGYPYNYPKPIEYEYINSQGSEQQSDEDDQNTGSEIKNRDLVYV
Outline: as §1

CDKL2 = target: T9, CDKL2 (Homo sapiens, UniProt Q92772)
T9 construct: host or cells: T7 phage in E. coli host derived from BL21
Outline: as §1

p38-delta = target: T10, p38-delta (Homo sapiens, UniProt O15264)
T10 construct: host or cells: E. coli host derived from BL21, infected with T7 phage
Outline: as §1

ABL1(E255K) = target: T11, ABL1(E255K) (Homo sapiens, UniProt P00519, E255K)
T11 construct: host or cells: E. coli (BL21-derived), T7 phage lysate
Outline: as §1

RET(M918T) = target: T12, RET(M918T) (Homo sapiens, UniProt P07949, M918T)
T12 construct: host or cells: E. coli host derived from BL21, T7 phage display
Outline: as §1

CAMK2D = target: T13, CAMK2D (Homo sapiens, UniProt Q13557)
T13 construct: host or cells: E. coli host derived from BL21
Outline: as §1

KIT(V559D, V654A) = target: T14, KIT(V559D, V654A) (Homo sapiens, UniProt P10721, V559D/V654A)
T14 construct: host or cells: T7 phage grown in E. coli host derived from BL21
Outline: as §1

PRKG1 = target: T15, PRKG1 (Homo sapiens, UniProt Q13976)
T15 construct: host or cells: T7 phage in E. coli host derived from BL21
T15 sequence (Q13976 whole entry): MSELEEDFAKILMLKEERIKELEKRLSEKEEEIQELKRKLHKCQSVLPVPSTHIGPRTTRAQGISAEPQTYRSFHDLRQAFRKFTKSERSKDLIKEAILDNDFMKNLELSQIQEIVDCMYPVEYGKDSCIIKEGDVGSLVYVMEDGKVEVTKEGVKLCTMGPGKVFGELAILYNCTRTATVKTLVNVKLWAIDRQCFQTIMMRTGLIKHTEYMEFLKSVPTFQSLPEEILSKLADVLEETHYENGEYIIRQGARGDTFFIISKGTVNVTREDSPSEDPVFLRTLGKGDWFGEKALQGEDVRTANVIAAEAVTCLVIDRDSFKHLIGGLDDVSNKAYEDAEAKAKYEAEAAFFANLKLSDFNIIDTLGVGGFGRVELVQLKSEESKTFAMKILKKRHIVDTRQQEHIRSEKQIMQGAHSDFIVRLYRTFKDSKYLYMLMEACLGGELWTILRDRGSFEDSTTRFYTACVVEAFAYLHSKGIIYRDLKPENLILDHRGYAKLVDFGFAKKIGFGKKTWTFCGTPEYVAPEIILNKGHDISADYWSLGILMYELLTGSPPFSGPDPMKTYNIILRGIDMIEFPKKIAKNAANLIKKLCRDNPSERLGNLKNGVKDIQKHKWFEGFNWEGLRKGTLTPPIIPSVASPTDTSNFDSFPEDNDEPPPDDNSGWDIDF
Outline: as §1

MST1 = target: T16, MST1 (Homo sapiens, UniProt Q13043)
T16 construct: host or cells: T7 phage grown in E. coli host derived from BL21
T16 sequence (Q13043 whole entry): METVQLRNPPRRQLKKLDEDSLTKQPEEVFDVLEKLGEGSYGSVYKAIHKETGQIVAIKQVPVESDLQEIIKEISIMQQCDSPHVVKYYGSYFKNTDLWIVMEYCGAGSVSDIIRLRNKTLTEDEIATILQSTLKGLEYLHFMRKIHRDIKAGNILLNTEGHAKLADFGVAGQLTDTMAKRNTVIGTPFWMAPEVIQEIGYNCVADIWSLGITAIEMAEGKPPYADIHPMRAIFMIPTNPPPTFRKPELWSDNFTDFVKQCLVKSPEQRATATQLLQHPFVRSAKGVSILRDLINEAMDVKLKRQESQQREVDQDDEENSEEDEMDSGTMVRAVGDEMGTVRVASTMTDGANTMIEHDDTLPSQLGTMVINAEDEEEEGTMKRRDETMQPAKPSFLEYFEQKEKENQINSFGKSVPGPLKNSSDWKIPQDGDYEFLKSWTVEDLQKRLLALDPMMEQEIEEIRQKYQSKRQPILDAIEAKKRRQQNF
Outline: as §1

GSK3B = target: T17, GSK3B (Homo sapiens, UniProt P49841)
T17 construct: host or cells: T7 phage in E. coli host derived from BL21
Outline: as §1

PRKR = target: T18, PRKR (Homo sapiens, UniProt P19525)
T18 construct: host or cells: T7 phage in E. coli host derived from BL21
T18 sequence (P19525 whole entry): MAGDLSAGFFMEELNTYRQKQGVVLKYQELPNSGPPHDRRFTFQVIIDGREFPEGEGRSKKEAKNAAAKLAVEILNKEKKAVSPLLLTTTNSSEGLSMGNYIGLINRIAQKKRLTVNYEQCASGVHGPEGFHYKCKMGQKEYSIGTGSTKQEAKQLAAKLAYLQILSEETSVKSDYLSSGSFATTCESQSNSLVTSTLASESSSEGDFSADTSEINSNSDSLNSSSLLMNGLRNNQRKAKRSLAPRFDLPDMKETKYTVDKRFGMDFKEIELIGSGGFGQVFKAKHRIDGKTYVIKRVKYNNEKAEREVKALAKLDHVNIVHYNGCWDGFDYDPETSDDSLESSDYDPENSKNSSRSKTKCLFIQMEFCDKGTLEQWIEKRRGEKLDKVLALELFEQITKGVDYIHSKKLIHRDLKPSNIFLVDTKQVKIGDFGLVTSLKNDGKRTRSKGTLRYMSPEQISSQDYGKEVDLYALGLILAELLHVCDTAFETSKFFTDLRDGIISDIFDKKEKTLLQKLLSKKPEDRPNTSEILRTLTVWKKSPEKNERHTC
Outline: as §1

EGFR(L747-T751del, Sins) = target: T19, EGFR(L747-T751del, Sins) (Homo sapiens, UniProt P00533, DEL747-750/T751S)
T19 construct: purchased Ambit Biosciences Corp; host or cells: T7 phage in E. coli host derived from BL21
T19 sequence (P00533 with tags, fused parts or gaps DEL747-750/T751S): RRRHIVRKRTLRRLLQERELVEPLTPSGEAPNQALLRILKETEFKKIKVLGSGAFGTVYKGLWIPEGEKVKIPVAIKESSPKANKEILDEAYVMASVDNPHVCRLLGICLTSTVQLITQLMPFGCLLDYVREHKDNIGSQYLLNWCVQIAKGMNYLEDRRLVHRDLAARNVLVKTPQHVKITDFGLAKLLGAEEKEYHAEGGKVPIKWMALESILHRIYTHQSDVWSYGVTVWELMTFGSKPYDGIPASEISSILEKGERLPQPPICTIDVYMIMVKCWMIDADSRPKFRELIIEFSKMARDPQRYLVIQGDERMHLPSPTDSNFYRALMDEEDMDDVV
Outline: as §1

PFTAIRE2 = target: T20, PFTAIRE2 (Homo sapiens, UniProt Q96Q40)
T20 construct: host or cells: E. coli host derived from BL21, infected with T7 phage
Outline: as §1

YANK3 = target: T21, YANK3 (Homo sapiens, UniProt Q86UX6)
T21 construct: host or cells: E. coli host derived from BL21, T7 phage
T21 sequence (Q86UX6 whole entry): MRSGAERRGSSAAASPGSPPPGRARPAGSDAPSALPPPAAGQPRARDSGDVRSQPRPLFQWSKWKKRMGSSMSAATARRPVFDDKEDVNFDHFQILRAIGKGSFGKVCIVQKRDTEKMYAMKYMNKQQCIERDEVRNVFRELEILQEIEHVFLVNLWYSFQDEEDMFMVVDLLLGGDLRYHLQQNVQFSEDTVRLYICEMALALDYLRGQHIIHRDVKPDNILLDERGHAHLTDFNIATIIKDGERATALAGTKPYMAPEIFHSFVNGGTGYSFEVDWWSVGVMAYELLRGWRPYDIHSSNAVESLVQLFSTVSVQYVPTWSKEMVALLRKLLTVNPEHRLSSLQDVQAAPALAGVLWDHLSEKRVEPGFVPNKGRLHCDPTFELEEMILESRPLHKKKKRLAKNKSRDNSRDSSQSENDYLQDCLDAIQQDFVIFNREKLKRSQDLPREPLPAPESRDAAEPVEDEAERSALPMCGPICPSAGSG
Outline: as §1

LKB1 = target: T22, LKB1 (Homo sapiens, UniProt Q15831)
T22 construct: host or cells: E. coli host derived from the BL21 strain, infected with T7 phage
Outline: as §1

p38-beta = target: T23, p38-beta (Homo sapiens, UniProt Q15759)
T23 construct: host or cells: E. coli host derived from BL21, infected with T7 phage
T23 sequence (Q15759 whole entry): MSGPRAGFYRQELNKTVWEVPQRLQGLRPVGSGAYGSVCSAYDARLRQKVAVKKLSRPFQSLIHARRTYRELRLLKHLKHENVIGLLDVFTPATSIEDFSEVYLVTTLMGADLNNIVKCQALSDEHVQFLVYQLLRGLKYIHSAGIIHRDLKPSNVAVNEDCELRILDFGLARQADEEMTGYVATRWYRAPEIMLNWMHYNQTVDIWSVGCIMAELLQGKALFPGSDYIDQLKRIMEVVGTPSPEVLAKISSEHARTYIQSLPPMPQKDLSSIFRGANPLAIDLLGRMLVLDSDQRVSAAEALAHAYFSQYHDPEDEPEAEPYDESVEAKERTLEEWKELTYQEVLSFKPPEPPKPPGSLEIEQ
Outline: as §1

HPK1 = target: T24, HPK1 (Homo sapiens, UniProt Q92918)
T24 construct: host or cells: T7 phage in E. coli host derived from BL21
Outline: as §1

p38-gamma = target: T25, p38-gamma (Homo sapiens, UniProt P53778)
T25 construct: host or cells: E. coli host derived from BL21, infected with T7 phage
Outline: as §1

SIK2 = target: T26, SIK2 (Homo sapiens, UniProt Q9H0K1)
T26 construct: host or cells: T7 phage grown in E. coli (BL21-derived)
Outline: as §1

KIT = target: T27, KIT (Homo sapiens, UniProt P10721)
T27 construct: host or cells: T7 phage grown in E. coli host derived from BL21
Outline: as §1

MAP3K3 = target: T28, MAP3K3 (Homo sapiens, UniProt Q99759)
T28 construct: host or cells: E. coli host derived from the BL21 strain, infected with T7 phage
Outline: as §1

FES = target: T29, FES (Homo sapiens, UniProt P07332)
T29 construct: host or cells: T7 phage in E. coli host derived from BL21
Outline: as §1

STK33 = target: T30, STK33 (Homo sapiens, UniProt Q9BYT3)
T30 construct: host or cells: T7 phage grown in E. coli (BL21-derived)
Outline: as §1

ADCK4 = target: T31, ADCK4 (Homo sapiens, UniProt Q96D53)
T31 construct: host or cells: E. coli (BL21-derived), T7 phage lysate
Outline: as §1

TLK2 = target: T32, TLK2 (Homo sapiens, UniProt Q86UE8)
T32 construct: host or cells: E. coli host derived from BL21, T7 phage
Outline: as §1

ASK1 = target: T33, ASK1 (Homo sapiens, UniProt Q99683)
T33 construct: host or cells: E. coli host derived from BL21
Outline: as §1

CAMK2G = target: T34, CAMK2G (Homo sapiens, UniProt Q13555)
T34 construct: host or cells: E. coli host derived from BL21
Outline: as §1

C#Cc1cccc(Nc2ncnc3cc(OC)c(OCCCN4CCOCC4)cc23)c1 [NRC-2694, N-(3-ethynylphenyl)-7-methoxy-6-[3-(4-morpholinyl)propoxy]-4-quinazolinamine]
remaining binding at 10 µM (MAP4K2): 48%
remaining binding at 10 µM (LTK): 3.8%
remaining binding at 10 µM (HIPK1): 70%
remaining binding at 10 µM (MST3): 42%
remaining binding at 10 µM (PHKG1): 50%
remaining binding at 10 µM (PKMYT1): 74%
remaining binding at 10 µM (ULK1): 100%
remaining binding at 10 µM (LATS1): 91%
remaining binding at 10 µM (CDKL2): 67%
remaining binding at 10 µM (p38-delta): 100%
remaining binding at 10 µM (ABL1(E255K)): 80%
remaining binding at 10 µM (RET(M918T)): 37%
remaining binding at 10 µM (CAMK2D): 35%
remaining binding at 10 µM (KIT(V559D, V654A)): 47%
remaining binding at 10 µM (PRKG1): 75%
remaining binding at 10 µM (MST1): 100%
remaining binding at 10 µM (GSK3B): 100%
remaining binding at 10 µM (PRKR): 51%
remaining binding at 10 µM (EGFR(L747-T751del, Sins)): 0%
remaining binding at 10 µM (PFTAIRE2): 71%
remaining binding at 10 µM (YANK3): 100%
remaining binding at 10 µM (LKB1): 69%
remaining binding at 10 µM (p38-beta): 100%
remaining binding at 10 µM (HPK1): 47%
remaining binding at 10 µM (p38-gamma): 97%
remaining binding at 10 µM (SIK2): 21%
remaining binding at 10 µM (KIT): 26%
remaining binding at 10 µM (MAP3K3): 5.9%
remaining binding at 10 µM (FES): 72%
remaining binding at 10 µM (STK33): 43%
remaining binding at 10 µM (ADCK4): 14%
remaining binding at 10 µM (TLK2): 82%
remaining binding at 10 µM (ASK1): 100%
remaining binding at 10 µM (CAMK2G): 58%
